Results taken from publication PMC10691210 (Proceedings of the National Academy of Sciences of the …, 2023).

Tested on: whole plants
Assay: Herbicidal activity on whole plants
Format: in vivo

## Cc1nc2c(F)c(F)ccc2cc1Oc1cccc(F)c1C(C)(C)O [ipflufenoquin]
  herbicidal effectiveness: ineffective
